Values after ≈ are worked out from the molar mass of the structure shown. Like-named read-outs stand apart in the source and are kept apart here.
How the values were obtained:
[1] = Kinetic solubility in PBS; type: physicochemical; details: phosphate-buffered saline, pH 7.4, aqueous buffer, kinetic from dmso stock
Method in brief: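 Echo-MS quantitation with calibration from 0.05 to 4 μM, after 1:99 dilution of filtrate into 50% acetonitrile. Filtrate came from a 100 μM PBS (pH 7.4) solution equilibrated 2 h at room temperature with shaking, in duplicate.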

[2] = Plasma protein binding, equilibrium dialysis, human plasma; type: in vitro ADME; details: undiluted plasma
[3] = Microsomal stability assay, human liver microsomes; type: in vitro ADME; details: for Mics (hu) comp remaining 60 min: 10 μM; for microsomal CLint at 10 µM: pooled liver microsomes, pH 7.4, read-out: Mics (hu) CLint
[4] = target: T1, recombinant human CD73 (hCD73) (Homo sapiens, UniProt P21589); assay: CD73 activity assay on recombinant human CD73; type: biochemical; details: ΔGexp = RT ln Ki
T1 sequence (P21589 27-574): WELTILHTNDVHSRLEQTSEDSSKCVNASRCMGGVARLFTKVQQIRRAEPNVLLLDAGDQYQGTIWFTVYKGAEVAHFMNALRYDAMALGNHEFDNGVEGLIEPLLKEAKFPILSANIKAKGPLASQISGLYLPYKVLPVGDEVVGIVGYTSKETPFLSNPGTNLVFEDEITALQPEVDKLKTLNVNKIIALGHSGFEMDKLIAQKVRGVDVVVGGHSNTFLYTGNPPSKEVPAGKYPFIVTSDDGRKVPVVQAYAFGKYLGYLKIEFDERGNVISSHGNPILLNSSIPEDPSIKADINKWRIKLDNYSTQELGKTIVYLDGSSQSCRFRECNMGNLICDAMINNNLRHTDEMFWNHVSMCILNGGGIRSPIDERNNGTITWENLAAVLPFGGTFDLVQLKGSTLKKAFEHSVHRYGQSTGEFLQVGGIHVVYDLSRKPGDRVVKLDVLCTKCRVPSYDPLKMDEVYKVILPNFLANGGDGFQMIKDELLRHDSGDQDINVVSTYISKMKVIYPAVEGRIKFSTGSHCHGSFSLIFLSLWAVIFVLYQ

[5] = Plasma protein binding, mouse plasma; type: in vitro ADME; details: mouse, plasma
[6] = in vitro; details: human, plasma
[7] = in vitro; details: mouse, plasma
[8] = In vivo pharmacokinetic study, intravenous; parameters: species or system male CD-1 mice; details: plasma, 1 mg/kg; for half-life: footnote: t1/2 stability in plasma, text: half-life in mouse PK
Method in brief: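 Single intravenous dose in male CD-1 mice (n=3, 9 weeks, 29.2–33.7 g). Plasma levels measured by LC-MS/MS at 5, 15, 30, 60, 120, 240 and 480 min.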

[9] = Microsomal stability assay, mouse liver microsomes; type: in vitro ADME; details: for Mics (m) comp remaining 60 min: 10 μM; for microsomal CLint at 10 µM: pooled liver microsomes, pH 7.4, read-out: Mics (m) CLint
[10] = tested on: CCRF-CEM; assay: In vitro cytotoxic activity; type: cell-based; details: Homo sapiens
Method: (§1) All the compounds were also tested for their in vitro cytotoxic activity on a small panel of four cancer cell lines (CCRF-CEM, HepG2, HeLa S3, HL-60) and nonmalignant human dermal fibroblasts (NHDF).

[11] = tested on: HepG2; assay: In vitro cytotoxic activity; type: cell-based; details: Homo sapiens
Method: as §1

[12] = tested on: HeLa S3; assay: In vitro cytotoxic activity; type: cell-based; details: Homo sapiens
Method: as §1

[13] = tested on: nonmalignant human dermal fibroblasts (NHDF); assay: In vitro cytotoxic activity; type: cell-based
Method: as §1

[14] = tested on: HL-60; assay: In vitro cytotoxic activity; type: cell-based; details: Homo sapiens
Method: as §1

[15] = human plasma protein binding, read-out: PPB (hu) (converted)
[16] = Tables 2 and 4, mouse plasma, read-out: fup, fraction unbound in mouse plasma
[17] = mouse plasma protein binding, read-out: PPB (m) (converted)
[18] = male, CD-1, mouse, iv, intravenous
[19] = mouse, male CD-1 mice, intravenous, single dose, read-out: Cl (obs), observed clearance

SMILES	solubility at 2 h [1]	fraction unbound at 4 h, 100 µM [2, 15]	Mics (hu) comp remaining 60 min [3]	microsomal CLint at 10 µM [3]	dG_exp, experimental binding free energy [4]	fraction unbound at 4 h, 100 µM [5, 16]	fraction unbound at 4 h, 100 µM [5, 17]	half-life at 10 µM [6]	half-life at 10 µM [7]	half-life [8, 18]	clearance [8, 19]	Mics (m) comp remaining 60 min [9]	microsomal CLint at 10 µM [9]	IC50 [10]	IC50 [11]	IC50 [12]	IC50 [13]	IC50 [14]	fraction unbound at 4 h, 100 µM ([2]; Tables 1 and 3, human plasma as printed in footnote, read-out: fup, fraction unbound in human plasma)	clearance ([8]; male, CD-1, mouse, iv, in vivo PK in mice, unit inferred, read-out: clearance)
O=P(O)(O)CP(=O)(O)OC[C@H]1O[C@@H](n2ccc3c(-c4ccco4)nc(Cl)nc32)[C@H](O)[C@@H]1O [7B.1, [(5-{[2-Chloro-4-(furan-2-yl)-7H-pyrrolo[2,3-d]pyrimidin-7-yl]-β-D-ribofuranosyl}oxy)phosphonomethyl]phosphonic Acid]	> 100 µM	0.098	98%	2 µL/min/mg	–15.2 kcal/mol	0.92	0.818	> 2 h	> 2 h	0.105 h	8.3 mL/min/kg	106%	< 1 µL/min/mg	8.8 µM	> 10 µM	> 10 µM	> 10 µM	5.6 µM		
O=P(O)(O)CP(=O)(O)OC[C@H]1O[C@@H](n2ccc3c(-c4ccc5cc(F)ccc5c4)nc(Cl)nc32)[C@H](O)[C@@H]1O [7B.25]	> 100 µM	≤ 0.01	108%	< 2 µL/min/mg	–15.4 kcal/mol	0.08	0.079	> 2 h	> 2 h	0.283 h	5.9 mL/min/kg	109%	< 2 µL/min/mg	> 10 µM	> 10 µM	> 10 µM	> 10 µM	> 10 µM		
O=P(O)(O)CP(=O)(O)OC[C@H]1O[C@@H](n2ccc3c(-c4cc(Br)c5ccccc5c4F)nc(Cl)nc32)[C@H](O)[C@@H]1O [7B.26]	71 µM (≈ 47.3 µg/mL)	≤ 0.01	117%	< 2 µL/min/mg	–15.7 kcal/mol	0.02	0.016	> 2 h	> 2 h	1.67 h	1.1 mL/min/kg	113%	< 2 µL/min/mg	> 10 µM	> 10 µM	> 10 µM	> 10 µM	> 10 µM		
O=P(O)(O)CP(=O)(O)OC[C@H]1O[C@@H](n2ccc3c(-c4cccc5c4CCCC5)ncnc32)[C@H](O)[C@@H]1O [4A.12]	94 µM (≈ 50.7 µg/mL)	0.073	96%	1 µL/min/mg	–15.1 kcal/mol		0.381	> 2 h	> 2 h	2.17 h		100%	< 1 µL/min/mg	> 10 µM	> 10 µM	> 10 µM	> 10 µM	> 10 µM	0.38	2.1 mL/min/kg
Nc1nc(-c2cccc3ccccc23)c2ccn([C@@H]3O[C@H](COP(=O)(O)CP(=O)(O)O)[C@@H](O)[C@H]3O)c2n1 [11C.6]	> 100 µM	0.067	92%	3 µL/min/mg	–13.9 kcal/mol	0.56	0.564	> 2 h	> 2 h	2.78 h	2.3 mL/min/kg	102%	< 1 µL/min/mg	> 10 µM	> 10 µM	> 10 µM	> 10 µM	> 10 µM		
O=P(O)(O)CP(=O)(O)OC[C@H]1O[C@@H](n2ccc3c(-c4cc5ccccc5o4)nc(Cl)nc32)[C@H](O)[C@@H]1O [7B.8]	87 µM (≈ 48.7 µg/mL)	0.033	98%	1 µL/min/mg	–16.0 kcal/mol	0.19	0.187	> 2 h	> 2 h	0.142 h	8.8 mL/min/kg	109%	< 1 µL/min/mg	> 10 µM	> 10 µM	> 10 µM	> 10 µM	6 µM		
Cc1nc(-c2cc3ccccc3o2)c2ccn([C@@H]3O[C@H](COP(=O)(O)CP(=O)(O)O)[C@@H](O)[C@H]3O)c2n1 [18E.8]	86 µM (≈ 46.4 µg/mL)	0.026	95%	2 µL/min/mg	–14.7 kcal/mol	0.3	0.302	> 2 h	> 2 h	0.25 h	7.4 mL/min/kg	103%	< 1 µL/min/mg	> 10 µM	> 10 µM	> 10 µM	> 10 µM	> 10 µM		

— PMC12797170, “Potent Competitive Inhibitors of Ecto-5′-nucleotidase (CD73) based on 6‑(Het)aryl-7-deazapurine Ribonucleoside 5′‑O‑Bisphosphonates” (ACS Pharmacology & Translational Science, 2025)
